Test results: patent publication US20250340579A1 (priority 2022, published 2025)

Tests used:
[1] = in vivo; cited from earlier work
[2] = pH 7.4

| Compound | effectiveness post-cyanide exposure versus pre-exposure [1] | solution stability [2] |
| --- | --- | --- |
| C/C1=C2/[N-][C@H]([C@H](CC(N)=O)[C@@]2(C)CCC(=O)NC[C@@H](C)O)[C@]2(C)N=C(/C(C)=C3N=C(/C=C4N=C1[C@@H](CCC(N)=O)C\4(C)C)[C@@H](CCC(N)=O)[C@]\3(C)CC(N)=O)[C@@H](CCC(N)=O)[C@]2(C)CC(N)=O.[Co+3] [Cobinamide] | as effective when administered up to 5 minutes post-cyanide exposure as when given pre-exposure | – |
| bis-aminotetrazole-cobinamide | – | stable at room temperature when protected from bright light |
